Consider two molecules from US20080146555A1, “Uses of Kinase Inhibitors and Compositions Thereof” (GPC Biotech, Inc, priority 2004, published 2008).

Test [1] relates to HCT-116 cells. In words: Calcein AM viability assay, HCT-116. It counts as cell-based. The note with it: Homo sapiens. The essentials: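 Cells (HCT-116 1,000, IMR90 4,000 per well) adhered overnight, then received 7 doses from 0 to 250 nM for 72 h at 37 °C. Viability read as calcein fluorescence after 75 min with Calcein AM; IC50 values, with protein-adjusted values also obtained in HCT-116.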

Test [2] addresses T1, JNK1α1 (Homo sapiens, UniProt P45983).
T1 construct: purchased Upstate 14-327
Kind of test: JNK1α1 kinase assay. It counts as biochemical. The method, then: • 1. 10× Reaction Buffer: 500 mM Tris-HCl pH 7.5, 1 mM EGTA, 1% 2-mercaptoethanol. • 2. Enzyme Dilution Buffer (EDB): 50 mM Tris-HCl pH 7.5, 0.1 mM EGTA, 0.1% 2-mercaptoethanol, 1 mg/ml BSA. • 3. JNK 11/SAPK1c, active: Dilute to 0.4-8 ng/μl with EDB. Use […] per assay point. • 4. ATF2 (amino acids 19-96) (Catalog #12-367): Prepare a 1.08 mg/ml stock. Use 2.5 μl per assay point for a final concentration of 3 μM per assay point. • 5. Magnesium/ATP Cocktail (Catalog #20-113): 75 mM MgCl2 and 500 μM ATP in 20 mM MOPS, pH 7.2, 25 mM β-glycerol phosphate, 5 mM EGTA, 1 mM sodium orthovanadate, 1 mM dithiothreitol. • 6. [γ-^32P]ATP: Stock 1 mCi/100 μl (3000 Ci/mmol, obtained from PerkinElmer, Cat. # BLU002A). Make 10 μl aliquots (100 μCi/vial). Before starting the assay, dilute an aliquot to 1 μCi/μl with 90 μl of Magnesium/ATP Cocktail diluted 1:2 with sterile, distilled water. […]
• 1. Add 2.5 μl of 10× Reaction Buffer per assay. • 2. Add 2.5 μl of ATF2 (amino acids 19-96). • 3. Add 2.5 μl (1-20 ng) JNK1α1/SAPK1c, active. • 4. Add 7.5 μl of sterile, distilled water. • 5. Add 10 μl of the diluted [γ-^32P]ATP mixture. • 6. Incubate for 10 minutes at 30° C. • 7. Transfer a 20 μl aliquot onto the center of a 2 cm×2 cm P81 paper. • 8. Wash the assay squares three times for 5 minutes with 0.75% phosphoric acid. • 9. Wash the assay squares once for 5 minutes with acetone. • 10. Transfer the assay squares to vial and add 5 ml scintillation cocktail. • 11. Read in scintillation counter. Compare cpm of enzyme samples to cpm of control samples that contain background control.

The test system of test [3] is 1A9-PTX10. Kind of test: SRB cytotoxicity, tubulin mutated paclitaxel-resistant cells. It counts as cell-based, human. The note with it: for IC50: Homo sapiens, 1A9/ptx-10, 72 h, SRB; for RR (relative resistance) 1A9-PTX10 vs 1A9: ratio of mean IC50 resistant/sensitive. The method, then:
In these experiments, the P-glycoprotein expressing NCI-Adr resistant subline (Vickers et al., 1989. Mol Endocrinology 3 (1):157-164) was used. […] Briefly, cells were plated in 96 well dishes 24 hours prior to compound addition. Where noted, they were exposed to verapamil for 4 hours prior to compound addition and then throughout the treatment period (72 hours). The assay was terminated with the addition of cold TCA to a final concentration of 10% and the plates were incubated for one hour at 4° C. The plates were then washed 5 times with water and 100 μl of a Sulforhodamine B solution (4%) was added to each well. The plate was then incubated for 10 minutes at room temperature before removal of unbound dye by washing with 1% acetic acid.
The tubulin mutated, paclitaxel-resistant human ovarian carcinoma cell line 1A9-PTX10 and its parental paclitaxel-sensitive cell line 1A9 were derived from the A2780 human ovarian carcinoma cell line (J Biol Chem (1997) 272, 17118-17124).

The target in test [4] is panel of Tyr kinases. Kind of test: Kinase panel, Tyr kinases (average). The test is classed as biochemical. The settings on record: average over panel; read-out: average IC50 among Tyr kinases.
[5] abbreviates: HCT-116, non-protein adjusted, Table 4, read-out: HCT-116 viability IC50.
The mark [6] stands for this setting: HCT-116, text b600, read-out: HCT-116 protein-adjusted viability IC50.
[7] abbreviates: HCT-116, text b600, read-out: HCT-116 viability IC50.
[8] abbreviates: kinase panel, 10 μM ATP, read-out: JNK1α1 IC50.
[9] abbreviates: read-out: MAPK8 Inhibition (IC50).

Molecules are shown by their SMILES. “And” between values parts separate entries of the source, which are not always exact repeats. Equal values may be shown once. Where a name gives a salt, the structure may show the parent alone. Read-outs that look alike come from different tables or passages of the source.

T1 sequence (P45983 1-384 isoform P45983-2, species assumed): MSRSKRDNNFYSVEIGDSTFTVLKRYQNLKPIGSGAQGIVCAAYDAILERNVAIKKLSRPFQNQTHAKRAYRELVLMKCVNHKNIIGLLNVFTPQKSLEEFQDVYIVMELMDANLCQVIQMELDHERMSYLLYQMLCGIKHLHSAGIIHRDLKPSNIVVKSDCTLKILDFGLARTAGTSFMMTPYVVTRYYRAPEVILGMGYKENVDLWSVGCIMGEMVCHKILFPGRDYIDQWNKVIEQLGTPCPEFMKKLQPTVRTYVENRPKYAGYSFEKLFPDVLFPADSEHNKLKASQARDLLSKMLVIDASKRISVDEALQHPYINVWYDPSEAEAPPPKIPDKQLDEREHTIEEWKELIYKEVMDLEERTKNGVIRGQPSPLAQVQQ

For the molecule `CC(C)N1CCN(C(=O)COc2ccc(-c3n[nH]c4c3C(=O)c3c(NC(=O)NN5CCOCC5)cccc3-4)cc2)CC1` [Compound A37], the IC50 is under 100 nM in test [1] (setting [5]); under 500 nM in test [1] (setting [6]); under 50 nM in test [1] (setting [7]); 10 to 100 nM in test [2] (setting [8]); under 50 nM in test [2] (setting [9]); 44.3 nM in test [3]. Also, the IC50 in test [4] was ~37 nM and 35.5 nM. The “RR (relative resistance) 1A9-PTX10 vs 1A9” value in test [3] is on record as 3.3.

Consider `COCCN1CCN(Cc2ccc(-c3n[nH]c4c3C(=O)c3c(NC(=O)NN5CCOCC5)cccc3-4)cc2)CC1` [Compound B16, N-[3-(4-{[4-(2-methoxyethyl)piperazinyl]methyl}phenyl)-4-oxoindeno[2,3-d]pyrazol-5-yl](morpholin-4-ylamino)carboxamide dihydrochloride], for which the half-maximal inhibitory concentration (IC50) in test [1] (setting [5]) was under 10 nM; in test [1] (setting [6]), under 500 nM; in test [1] (setting [7]), under 10 nM; in test [2] (setting [8]), under 100 nM; in test [2] (setting [9]), under 100 nM; in test [3] it was 25 nM. Moreover, in test [4], the half-inhibitory concentration (IC50) is about 55 nM. In addition, the “RR (relative resistance) 1A9-PTX10 vs 1A9” value in test [3] was 2.3.

One may read the IC50 as the concentration needed to halve the response being measured.
